Results as given in US20240208968A1, “ALPHA V BETA 6 AND ALPHA V BETA 1 INTEGRIN INHIBITORS AND USES THEREOF” (DiCE Molecules SV, Inc., priority 2021, published 2024).

Tests used:
αvβ1 = αvβ1 (Homo sapiens, UniProt P05556+P06756); assay: Solid Phase Integrin αvβ1 Assay; format: binding
Outline: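 Compound competes for αvβ1 binding to immobilized TGFb1-LAP (1 µg/mL coat) in Mn2+ (1 mM MnCl2), 2% BSA binding buffer over 90 min at room temperature, integrin added at 0.2 µg/mL. Read-out: streptavidin-HRP/TMB; IC50 from Levenberg-Marquardt four-parameter fit.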

αvβ6 = αvβ6 (Homo sapiens, UniProt P06756+P18564); assay: Solid Phase Integrin αvβ6 Assay; format: binding
Outline: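 Inhibition of αvβ6 binding to immobilized recombinant TGFb1-LAP (1 μg/mL coating), 1 h at room temperature with 1 mM MnCl2 in BSA/TBST buffer, integrin diluted to 0.2 μg/mL before addition. Streptavidin-HRP/TMB read-out; four-parameter logistic fitting gave IC50.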

Sequence of αvβ1 (P06756 31-992 limits assumed): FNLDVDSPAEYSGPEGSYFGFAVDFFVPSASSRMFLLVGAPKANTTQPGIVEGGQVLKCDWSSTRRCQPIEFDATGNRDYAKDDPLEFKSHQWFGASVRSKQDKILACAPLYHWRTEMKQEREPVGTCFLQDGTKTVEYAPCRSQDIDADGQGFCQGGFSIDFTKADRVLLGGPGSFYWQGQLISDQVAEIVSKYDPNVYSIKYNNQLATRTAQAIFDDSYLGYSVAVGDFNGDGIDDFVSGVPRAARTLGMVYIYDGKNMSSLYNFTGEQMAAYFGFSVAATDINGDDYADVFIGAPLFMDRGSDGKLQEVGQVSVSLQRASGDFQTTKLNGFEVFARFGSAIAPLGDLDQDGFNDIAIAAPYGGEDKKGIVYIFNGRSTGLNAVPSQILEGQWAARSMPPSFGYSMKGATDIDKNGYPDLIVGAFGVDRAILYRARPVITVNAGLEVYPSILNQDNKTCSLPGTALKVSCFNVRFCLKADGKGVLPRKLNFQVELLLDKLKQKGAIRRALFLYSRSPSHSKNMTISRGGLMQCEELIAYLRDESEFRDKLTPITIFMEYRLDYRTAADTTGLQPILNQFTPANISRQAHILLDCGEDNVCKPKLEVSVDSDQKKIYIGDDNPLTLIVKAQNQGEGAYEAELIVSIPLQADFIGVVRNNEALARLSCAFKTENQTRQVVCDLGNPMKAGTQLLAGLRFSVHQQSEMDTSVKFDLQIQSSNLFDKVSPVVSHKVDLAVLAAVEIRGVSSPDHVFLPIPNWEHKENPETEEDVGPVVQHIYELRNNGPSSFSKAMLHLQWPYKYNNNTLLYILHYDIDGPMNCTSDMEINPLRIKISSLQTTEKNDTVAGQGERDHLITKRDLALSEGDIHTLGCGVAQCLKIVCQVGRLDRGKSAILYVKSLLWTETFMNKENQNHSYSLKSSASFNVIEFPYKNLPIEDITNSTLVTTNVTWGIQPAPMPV
Sequence of αvβ1 (P05556 21-728 limits assumed): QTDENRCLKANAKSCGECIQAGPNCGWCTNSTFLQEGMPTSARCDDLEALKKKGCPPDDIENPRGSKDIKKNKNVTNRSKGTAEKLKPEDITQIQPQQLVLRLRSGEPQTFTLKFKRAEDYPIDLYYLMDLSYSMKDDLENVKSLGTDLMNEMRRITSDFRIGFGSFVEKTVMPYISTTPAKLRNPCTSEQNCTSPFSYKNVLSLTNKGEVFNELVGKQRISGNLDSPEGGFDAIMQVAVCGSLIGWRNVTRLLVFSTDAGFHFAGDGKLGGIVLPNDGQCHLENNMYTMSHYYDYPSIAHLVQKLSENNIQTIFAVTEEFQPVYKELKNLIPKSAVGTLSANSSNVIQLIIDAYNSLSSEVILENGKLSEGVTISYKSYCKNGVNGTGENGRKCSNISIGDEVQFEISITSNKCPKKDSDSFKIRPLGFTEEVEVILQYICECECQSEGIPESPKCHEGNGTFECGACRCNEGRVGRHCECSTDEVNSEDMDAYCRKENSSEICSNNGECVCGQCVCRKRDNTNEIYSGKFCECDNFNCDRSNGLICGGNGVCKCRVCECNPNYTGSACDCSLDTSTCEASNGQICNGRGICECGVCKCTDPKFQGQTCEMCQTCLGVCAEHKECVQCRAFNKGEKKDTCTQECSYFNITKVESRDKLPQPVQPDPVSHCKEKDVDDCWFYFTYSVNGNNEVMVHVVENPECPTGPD
Sequence of αvβ6 (P06756 31-992 limits assumed): as the sequence (P06756 31-992 limits assumed) above
Sequence of αvβ6 (P18564 22-707 limits assumed): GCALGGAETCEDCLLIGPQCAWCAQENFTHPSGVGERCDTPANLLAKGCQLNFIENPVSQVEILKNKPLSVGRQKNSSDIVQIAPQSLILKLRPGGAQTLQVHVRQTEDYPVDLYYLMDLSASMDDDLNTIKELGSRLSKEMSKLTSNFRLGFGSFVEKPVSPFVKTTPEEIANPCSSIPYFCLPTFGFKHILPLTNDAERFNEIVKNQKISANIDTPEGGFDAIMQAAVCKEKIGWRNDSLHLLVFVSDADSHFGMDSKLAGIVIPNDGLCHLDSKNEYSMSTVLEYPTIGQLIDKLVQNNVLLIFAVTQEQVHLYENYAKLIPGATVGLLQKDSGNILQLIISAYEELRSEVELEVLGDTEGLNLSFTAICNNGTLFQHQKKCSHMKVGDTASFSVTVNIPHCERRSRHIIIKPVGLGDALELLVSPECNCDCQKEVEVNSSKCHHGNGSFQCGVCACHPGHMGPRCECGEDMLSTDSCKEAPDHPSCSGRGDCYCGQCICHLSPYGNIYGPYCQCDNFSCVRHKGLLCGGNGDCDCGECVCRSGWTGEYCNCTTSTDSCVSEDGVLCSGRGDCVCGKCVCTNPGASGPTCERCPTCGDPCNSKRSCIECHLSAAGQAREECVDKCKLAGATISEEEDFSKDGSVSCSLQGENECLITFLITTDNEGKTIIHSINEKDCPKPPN

In the case of `O=C(O)C[C@H](CO[C@@H]1CCCN(CCCc2ccc3c(n2)NCCC3)C1)c1cccc([C@H]2CCOC2)c1` [Compound 493], the IC50 (αvβ1) is reported as 100 to 1000 nM and the IC50 (αvβ6) is reported as 100 to 1000 nM.

With `O=C(N[C@H](CCO[C@@H]1CCCN(CCCc2ccc3c(n2)NCCC3)C1)C(=O)O)c1c(F)cc(N2CCOC[C@@H]2C(F)(F)F)cc1F` [Compound 494] the IC50 (αvβ1) was > 1000 nM and the IC50 (αvβ6) was > 1000 nM.

In the case of `O=C(O)[C@@H](CCO[C@@H]1CCCN(CCCc2ccc3c(n2)NCCC3)C1)NC(=O)[C@@H]1CCCN1S(=O)(=O)c1ccccc1` [Compound 495], the IC50 (αvβ1) is reported as < 100 nM and the IC50 (αvβ6) is reported as > 1000 nM.

For `O=C(N[C@H](CCO[C@@H]1CCCN(CCCc2ccc3c(n2)NCCC3)C1)C(=O)O)c1cc(Cl)cc(Cl)c1` [Compound 496], the IC50 (αvβ1) was > 1000 nM and the IC50 (αvβ6) was 100 to 1000 nM.

For `O=C(O)[C@@H](CCO[C@@H]1CCCN(CCCc2ccc3c(n2)NCCC3)C1)Nc1ncnc2cc(C(F)(F)F)ccc12` [Compound 497], the IC50 (αvβ1) was 100 to 1000 nM and the IC50 (αvβ6) was < 100 nM.

With `O=C(O)[C@@H](CCO[C@@H]1CCCN(CCCc2ccc3c(n2)NCCC3)C1)Nc1ncnc2sccc12` [Compound 498] the IC50 (αvβ1) was < 100 nM and the IC50 (αvβ6) was < 100 nM.

For `O=C(O)[C@H](CCO[C@@H]1CCCN(CCCc2ccc3c(n2)NCCC3)C1)c1ccc(F)c(-c2ccccc2)c1` [Compound 499], the IC50 (αvβ1) was > 1000 nM and the IC50 (αvβ6) was < 100 nM.

For `O=C(O)[C@H](CCO[C@@H]1CCCN(CCCc2ccc3c(n2)NCCC3)C1)c1cccc2c1cnn2CC1CC1` [Compound 500], the IC50 (αvβ1) was > 1000 nM and the IC50 (αvβ6) was 100 to 1000 nM.

`O=C(O)[C@H](CCO[C@@H]1CCCN(CCCc2ccc3c(n2)NCCC3)C1)c1cccc2nn(CC3CC3)cc12` [Compound 501] was tested, and the IC50 (αvβ1) was > 1000 nM and the IC50 (αvβ6) was 100 to 1000 nM.

`Cc1csc2ncnc(N[C@H](CCO[C@@H]3CCCN(CCCc4ccc5c(n4)NCCC5)C3)C(=O)O)c12` [Compound 502] was tested, and the IC50 (αvβ1) was < 100 nM and the IC50 (αvβ6) was < 100 nM.

For `O=C(O)[C@@H](CCO[C@@H]1CCCN(CCCc2ccc3c(n2)NCCC3)C1)Nc1ncnc2cc(F)c(F)cc12` [Compound 503], the IC50 (αvβ1) was > 1000 nM and the IC50 (αvβ6) was 100 to 1000 nM.

With `O=C(O)C[C@@H](CO[C@@H]1CCCN(CCCc2ccc3c(n2)NCCC3)C1)c1cccc(N2CCCC2=O)c1` [Compound 504] the IC50 (αvβ1) was < 100 nM and the IC50 (αvβ6) was < 100 nM.

For `O=C(O)C(CCO[C@@H]1CCCN(CCCc2ccc3c(n2)NCCC3)C1)c1ccnc(-c2ccccc2)c1` (stereo partly shown) [Compound 505], the IC50 (αvβ1) was > 1000 nM and the IC50 (αvβ6) was > 1000 nM.

`O=C(O)C[C@@H](CO[C@@H]1CCCN(CCCc2ccc3c(n2)NCCC3)C1)c1cccc([C@@H]2CCOC2)c1` [Compound 506] was tested, and the IC50 (αvβ1) was < 100 nM and the IC50 (αvβ6) was < 100 nM.

`O=C(O)C[C@@H](CO[C@@H]1CCCN(CCCc2ccc3c(n2)NCCC3)C1)c1cccc([C@H]2CCOC2)c1` [Compound 507] was tested, and the IC50 (αvβ1) was < 100 nM and the IC50 (αvβ6) was < 100 nM.

In the case of `O=C(O)C[C@@H](CO[C@@H]1CCCN(CCCc2ccc3c(n2)NCCC3)C1)c1cc(C2CC2)ccc1F` [Compound 508], the IC50 (αvβ1) is reported as < 100 nM and the IC50 (αvβ6) is reported as < 100 nM.

For `Cc1c[s+]([O-])c2ncnc(N[C@@H](CCO[C@@H]3CCCN(CCCc4ccc5c(n4)NCCC5)C3)C(=O)O)c12` (stereo partly shown) [Compound 509], the IC50 (αvβ1) was < 100 nM and the IC50 (αvβ6) was < 100 nM.

`Cc1c[s+]([O-])c2ncnc(N[C@H](CCO[C@@H]3CCCN(CCCc4ccc5c(n4)NCCC5)C3)C(=O)O)c12` (stereo partly shown) [Compound 510] was tested, and the IC50 (αvβ1) was > 1000 nM and the IC50 (αvβ6) was > 1000 nM.

`O=C(O)[C@@H](CCO[C@@H]1CCCN(CCCc2ccc3c(n2)NCCC3)C1)Nc1ncnc2ccsc12` [Compound 511] was tested, and the IC50 (αvβ1) was < 100 nM and the IC50 (αvβ6) was < 100 nM.

For `O=C(N[C@H](CCO[C@@H]1CCCN(CCCc2ccc3c(n2)NCCC3)C1)C(=O)O)c1c(F)cc(N2CCOCC2)cc1F` [Compound 512], the IC50 (αvβ1) was > 1000 nM and the IC50 (αvβ6) was > 1000 nM.

`O=C(O)C[C@@H](CO[C@@H]1CCCN(CCCc2ccc3c(n2)NCCC3)C1)c1cncc(C2CC2)c1` [Compound 513] was tested, and the IC50 (αvβ1) was < 100 nM and the IC50 (αvβ6) was < 100 nM.

`O=C(O)C[C@@H](CO[C@@H]1CCCN(CCCc2ccc3c(n2)NCCC3)C1)c1ccnc(C2CC2)c1` [Compound 514] was tested, and the IC50 (αvβ1) was < 100 nM and the IC50 (αvβ6) was < 100 nM.

With `O=C(O)C[C@@H](CO[C@@H]1CCCN(CCCc2ccc3c(n2)NCCC3)C1)c1cccc(-n2cccn2)c1` [Compound 515] the IC50 (αvβ1) was 100 to 1000 nM and the IC50 (αvβ6) was < 100 nM.

In the case of `O=C(O)[C@H](CCO[C@@H]1CCCN(CCCc2ccc3c(n2)NCCC3)C1)c1ccc(C2CC2)cc1` [Compound 516], the IC50 (αvβ1) is reported as < 100 nM and the IC50 (αvβ6) is reported as < 100 nM.

In the case of `O=C(NC[C@H](C(=O)O)c1cccc(-c2ccncc2)c1)[C@@H]1CCCN(CCCc2ccc3c(n2)NCCC3)C1` [Compound 517], the IC50 (αvβ1) is reported as < 100 nM and the IC50 (αvβ6) is reported as < 100 nM.

With `O=C(NC[C@H](C(=O)O)c1cccc(-c2cccc(C(F)(F)F)c2)c1)[C@@H]1CCCN(CCCc2ccc3c(n2)NCCC3)C1` [Compound 518] the IC50 (αvβ1) was < 100 nM and the IC50 (αvβ6) was < 100 nM.

For `O=C(O)C[C@@H](CO[C@@H]1CCCN(CCCc2ccc3c(n2)NCCC3)C1)c1cc(F)cc(C2CC2)c1` [Compound 519], the IC50 (αvβ1) was < 100 nM and the IC50 (αvβ6) was < 100 nM.

For `O=C(O)CC(CC(=O)N[C@H]1CCN(C(=O)CCCc2ccc3c(n2)NCCC3)C1)c1ccccc1` (stereo partly shown) [Compound 520], the IC50 (αvβ1) was < 100 nM and the IC50 (αvβ6) was 100 to 1000 nM.

In the case of `O=C(O)C[C@@H](CC(=O)N[C@H]1CCN(C(=O)CCCc2ccc3c(n2)NCCC3)C1)c1ccccc1` [Compound 521], the IC50 (αvβ1) is reported as < 100 nM and the IC50 (αvβ6) is reported as 100 to 1000 nM.

With `O=C(O)C[C@H](CC(=O)N[C@H]1CCN(C(=O)CCCc2ccc3c(n2)NCCC3)C1)c1ccccc1` [Compound 522] the IC50 (αvβ1) was < 100 nM and the IC50 (αvβ6) was 100 to 1000 nM.

In the case of `O=C(O)C[C@H](NC(=O)[C@H]1CCCN(CCCc2ccc3c(n2)NCCC3)C1)c1ccccc1` [Compound 523], the IC50 (αvβ1) is reported as 100 to 1000 nM and the IC50 (αvβ6) is reported as < 100 nM.

`O=C(O)CC(CC(=O)N[C@@H]1CCN(C(=O)CCCc2ccc3c(n2)NCCC3)C1)c1ccccc1` (stereo partly shown) [Compound 524] was tested, and the IC50 (αvβ1) was < 100 nM and the IC50 (αvβ6) was 100 to 1000 nM.

With `O=C(O)CC(CC(=O)N[C@H]1CCN(CCCCc2ccc3c(n2)NCCC3)C1)c1ccccc1` (stereo partly shown) [Compound 525] the IC50 (αvβ1) was < 100 nM and the IC50 (αvβ6) was 100 to 1000 nM.

Work on `CN(CC1(C)CCCCC1)[C@@H](CNC(=O)[C@@H]1CCCN(CCCc2ccc3c(n2)NCCC3)C1)C(=O)O` [Compound 527] yielded an IC50 (αvβ1) of 100 to 1000 nM and an IC50 (αvβ6) of 100 to 1000 nM.

`O=C(O)C[C@H](OC[C@@H]1CCCN(CCCc2ccc3c(n2)NCCC3)C1)c1cccc(C2CC2)c1` [Compound 528] was tested, and the IC50 (αvβ1) was > 1000 nM and the IC50 (αvβ6) was > 1000 nM.

`O=C(O)C[C@H](NC[C@@H]1CCCN(CCCc2ccc3c(n2)NCCC3)C1)c1cccc(C2CC2)c1` [Compound 529] showed an IC50 (αvβ1) of 100 to 1000 nM and an IC50 (αvβ6) of 100 to 1000 nM.

With `CN(C[C@@H]1CCCN(CCCc2ccc3c(n2)NCCC3)C1)[C@@H](CC(=O)O)c1cccc(C2CC2)c1` [Compound 530] the IC50 (αvβ1) was > 1000 nM and the IC50 (αvβ6) was > 1000 nM.

With `O=C(O)C[C@H](NC[C@@H]1CCCN(CCCc2ccc3c(n2)NCCC3)C1)c1cccc(Br)c1` [Compound 531] the IC50 (αvβ1) was > 1000 nM and the IC50 (αvβ6) was > 1000 nM.

With `CN(C[C@@H]1CCCN(CCCc2ccc3c(n2)NCCC3)C1)[C@@H](CC(=O)O)c1cccc(Br)c1` [Compound 532] the IC50 (αvβ1) was > 1000 nM and the IC50 (αvβ6) was > 1000 nM.

`O=C(O)C[C@H](NC(=O)[C@@H]1CCCN(CCCc2ccc3c(n2)NCCC3)C1)c1cccc([C@@H]2CCOC2)c1` [Compound 533] was tested, and the IC50 (αvβ1) was < 100 nM and the IC50 (αvβ6) was < 100 nM.

In the case of `O=C(O)C[C@H](NC(=O)[C@@H]1CCCN(CCCc2ccc3c(n2)NCCC3)C1)c1cccc([C@H]2CCOC2)c1` [Compound 534], the IC50 (αvβ1) is reported as < 100 nM and the IC50 (αvβ6) is reported as < 100 nM.
